Results reported in PubChem BioAssay (NCI).
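GI50 is the concentration that inhibits growth by half. TGI is the concentration that stops growth completely.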

What was measured:
Experiment in all cases: NCI tumour cell line growth inhibition, 384-well format
[1] = test system: ACHN renal
[2] = test system: NCI/ADR-RES ovarian
[3] = test system: MDA-MB-231 breast
[4] = test system: HL-60(TB) leukemia
[5] = test system: OVCAR-5 ovarian
[6] = test system: SR leukemia
[7] = test system: RPMI-8226 leukemia
[8] = test system: NCI-H322M lung
[9] = test system: OVCAR-8 ovarian
[10] = test system: U251 glioblastoma
[11] = test system: HCC-2998 colon
[12] = test system: KM12 colon
[13] = test system: M14 melanoma
[14] = test system: EKVX NSCLC
[15] = test system: OVCAR-4 ovarian
[16] = test system: HS 578T breast
[17] = test system: SF-539 CNS
[18] = test system: SK-MEL-5 melanoma
[19] = test system: SF-295 CNS
[20] = test system: UACC-257 melanoma
[21] = test system: HOP-62 NSCLC
[22] = test system: SN12C renal
[23] = test system: SK-OV-3 ovarian
[24] = test system: 786-0 renal
[25] = test system: SK-MEL-2 melanoma
[26] = test system: MALME-3M melanoma
[27] = test system: NCI-H23 lung
[28] = test system: UO-31 renal
[29] = test system: IGROV1 ovarian
[30] = test system: NCI-H460 NSCLC
[31] = test system: LOX IMVI melanoma
[32] = test system: MOLT-4 leukemia
[33] = test system: DU-145 prostate
[34] = test system: SK-MEL-28 melanoma
[35] = test system: UACC-62 melanoma
[36] = test system: MCF7 breast
[37] = test system: SW-620 colon
[38] = test system: HCT-116 colon
[39] = test system: HOP-92 NSCLC
[40] = test system: HT29 colon
[41] = test system: MDA-MB-468 breast
[42] = test system: SF-268 CNS
[43] = test system: CAKI-1 renal
[44] = test system: MDA-MB-435 melanoma
[45] = test system: A498 renal
[46] = test system: A549 NSCLC
[47] = test system: RXF 393 renal

Cc1ccc2c(Nc3cccc(Cl)c3F)ncc(NC(=O)c3csc4c(N)ncnc34)c2c1
GI50 [1]: 12.7 µM
TGI [1]: > 100 µM
GI50 [2]: 19.7 µM
TGI [2]: > 100 µM
GI50 [3]: 0.0195 µM
TGI [3]: 16.3 µM
GI50 [4]: 0.0159 µM
TGI [4]: 12.8 µM
GI50 [5]: 0.178 µM
TGI [5]: > 100 µM
GI50 [6]: 15.1 µM
TGI [6]: 82.8 µM
GI50 [7]: 1.6 µM
TGI [7]: 18.5 µM
GI50 [8]: 17.4 µM
TGI [8]: > 100 µM
GI50 [9]: 13.2 µM
TGI [9]: 43.1 µM
GI50 [10]: 22.3 µM
TGI [10]: > 100 µM
GI50 [11]: 0.115 µM
TGI [11]: 0.537 µM
GI50 [12]: 0.54 µM
TGI [12]: 99.4 µM
GI50 [13]: 0.0224 µM
TGI [13]: 0.186 µM
GI50 [14]: 10.8 µM
TGI [14]: > 100 µM
GI50 [15]: 44.6 µM
TGI [15]: > 100 µM
GI50 [16]: 0.931 µM
TGI [16]: 63.4 µM
GI50 [17]: 29.1 µM
TGI [17]: > 100 µM
GI50 [18]: 0.0518 µM
TGI [18]: 23.1 µM
GI50 [19]: 93.7 µM
TGI [19]: > 100 µM
GI50 [20]: 0.0668 µM
TGI [20]: 0.569 µM
GI50 [21]: 11.5 µM
TGI [21]: > 100 µM
GI50 [22]: 8.16 µM
TGI [22]: > 100 µM
GI50 [23]: 27 µM
TGI [23]: > 100 µM
GI50 [24]: 22.2 µM
TGI [24]: > 100 µM
GI50 [25]: 0.0346 µM
TGI [25]: 0.148 µM
GI50 [26]: 0.0124 µM
TGI [26]: 0.0436 µM
GI50 [27]: 0.0761 µM
TGI [27]: 4.46 µM
GI50 [28]: 0.258 µM
TGI [28]: > 100 µM
GI50 [29]: 1.6 µM
TGI [29]: 97.9 µM
GI50 [30]: 13 µM
TGI [30]: > 100 µM
GI50 [31]: 0.0418 µM
TGI [31]: 1.18 µM
GI50 [32]: 21.8 µM
TGI [32]: > 100 µM
GI50 [33]: 22 µM
TGI [33]: > 100 µM
GI50 [34]: 0.0179 µM
TGI [34]: 0.0923 µM
GI50 [35]: 0.0251 µM
TGI [35]: 0.209 µM
GI50 [36]: 7.47 µM
TGI [36]: > 100 µM
GI50 [37]: 0.721 µM
TGI [37]: > 100 µM
GI50 [38]: 0.162 µM
TGI [38]: 19.8 µM
GI50 [39]: 0.542 µM
TGI [39]: 7.97 µM
GI50 [40]: 0.127 µM
TGI [40]: > 100 µM
GI50 [41]: 18.3 µM
TGI [41]: 52.4 µM
GI50 [42]: 21.9 µM
TGI [42]: 73.7 µM
GI50 [43]: 0.577 µM
TGI [43]: > 100 µM
GI50 [44]: 0.0481 µM
TGI [44]: 55 µM
GI50 [45]: 3.07 µM
TGI [45]: 43 µM
GI50 [46]: 17.5 µM
TGI [46]: > 100 µM
GI50 [47]: 0.968 µM
TGI [47]: 95.7 µM
